Here are results for 14 compounds from US20130324412A1, “N-ALKOXYAMIDES OF 6-(SUBSTITUTED PHENYL)-4-AMINOPICOLINATES AND 2-(SUBSTITUTED PHENYL)-6-AMINO-4-PYRIMIDINECARBOXYLATES AND THEIR USE AS SELECTIVE HERBICIDES FOR CROPS” (DOW AGROSCIENCES LLC, priority 2009, published 2013).

Holding throughout (assay type): in vivo
The test system of one test is corn (Zea mays). Put plainly: General postemergence herbicidal activity, corn. Conditions: post-emergence, 336 h, postemergence, after 14 d, 0 = no injury, 100 = complete kill, read-out: ZEAMX % Visual Injury; for plant injury at 280 g/ha: 280 g ai/ha; for plant injury at 140 g/ha: 140 g ai/ha; for plant injury at 70 g/ha: 70 g ai/ha; for plant injury at 35 g/ha: 35 g ai/ha. How it is done: (§1) Seeds or nutlets of the desired test plant species were planted in Sun Gro MetroMix® 360 planting mixture, which typically has a pH of 6.0 to 6.8 and an organic matter content of about 30 percent, in plastic pots with a surface area of 64 square centimeters (cm^2). When required to ensure good germination and healthy plants, a fungicide treatment and/or other chemical or physical treatment was applied. The plants were grown for 7-21 days (d) in a greenhouse with an approximate 15-hour (h) photoperiod which was maintained at about 23-29° C. during the day and 22-28° C. during the night. Nutrients and water were added on a regular basis and supplemental lighting was provided with overhead metal halide 1000-Watt lamps as necessary. The plants were employed for testing when they reached the first or second true leaf stage.
(§2) A weighed amount, determined by the highest rate to be tested, of each test compound was dissolved in 4 mL of a 97:3 volume per volume (v/v) mixture of acetone and dimethyl sulfoxide (DMSO) to obtain concentrated stock solutions. […] The concentrated stock solutions obtained were diluted with 20 mL of an aqueous mixture containing acetone, water, isopropyl alcohol, DMSO, Atplus 411F crop oil concentrate, and Triton X-155 surfactant in a 48.5:39:10:1.5:1.0:0.02 v/v ratio to obtain spray solutions containing the highest application rates. Additional application rates were obtained by serial dilution of 12 mL of the high rate solution into a solution containing 2 mL of 97:3 v/v mixture of acetone and DMSO and 10 mL of an aqueous mixture containing acetone, water, isopropyl alcohol, DMSO, Atplus 411F crop oil concentrate, and Triton X-155 surfactant in a 48.5:39:10:1.5:1.0:0.02 v/v ratio to obtain ½×, ¼×, ⅛× and 1/16× rates of the high rate. Compound requirements are based upon a 12 mL application volume at a rate of 187 liters per hectare (L/ha). Formulated compounds were applied to the plant material with an overhead Mandel track sprayer equipped with 8002E nozzles calibrated to deliver 187 L/ha over an application area of 0.503 square meters (m^2) at a spray height of 18 inches (43 cm) above the average plant canopy height. Control plants were sprayed in the same manner with the solvent blank.
(§3) The treated plants and control plants were placed in a greenhouse as described above and watered by sub-irrigation to prevent wash-off of the test compounds. After 14 d, the condition of the test plants as compared with that of the untreated plants was determined visually and scored on a scale of 0 to 100 percent where 0 corresponds to no injury and 100 corresponds to complete kill.

The subject of test [1] is velvetleaf (Abutilon theophrasti). Put plainly: General postemergence herbicidal activity, velvetleaf. The note with it: post-emergence, 336 h, postemergence, after 14 d, 0 = no injury, 100 = complete kill, read-out: ABUTH % Visual Injury; for pest or weed control at 280 g/ha: 280 g ai/ha; for pest or weed control at 140 g/ha: 140 g ai/ha; for pest or weed control at 70 g/ha: 70 g ai/ha; for pest or weed control at 35 g/ha: 35 g ai/ha. How it is done:
as §1, §2, §3

The test system of test [2] is lambsquarters (Chenopodium album). The test is described as follows: General postemergence herbicidal activity, lambsquarters. Conditions: post-emergence, 336 h, postemergence, after 14 d, 0 = no injury, 100 = complete kill, read-out: CHEAL % Visual Injury; for pest or weed control at 280 g/ha: 280 g ai/ha; for pest or weed control at 140 g/ha: 140 g ai/ha; for pest or weed control at 70 g/ha: 70 g ai/ha; for pest or weed control at 35 g/ha: 35 g ai/ha. How it is done:
as §1, §2, §3

Test [3] deals with wild buckwheat (Polygonum convululus). The test is described as follows: General postemergence herbicidal activity, wild buckwheat. Conditions: post-emergence, 336 h, postemergence, after 14 d, 0 = no injury, 100 = complete kill, read-out: POLCO % Visual Injury; for pest or weed control at 280 g/ha: 280 g ai/ha; for pest or weed control at 140 g/ha: 140 g ai/ha; for pest or weed control at 70 g/ha: 70 g ai/ha; for pest or weed control at 35 g/ha: 35 g ai/ha. How it is done: as §1, §2, §3

As for `COc1c(N)nc(-c2ccc(Cl)c(F)c2F)nc1C(=O)NO` [Compound 58, 6-Amino-2-(4-chloro-2,3-difluorophenyl)-N-hydroxy-5-methoxypyrimidine-4-carboxamide], the plant injury at 280 g/ha with corn (Zea mays) is 0%. In addition, the results for the pest or weed control at 280 g/ha in test [1], in test [2] and in test [3] were 90%, 100% and 100%, respectively.

In the case of `C=CCONC(=O)c1nc(-c2ccc(Cl)c(OC)c2F)nc(N)c1OC` [Compound 35, N-(2-Propenyloxy)-6-amino-2-(4-chloro-2-fluoro-3-methoxyphenyl)-5-methoxypyrimidine-4-carboxamide], the plant injury at 140 g/ha in the test on corn (Zea mays) was 20%. In addition, the pest or weed control at 140 g/ha in test [1] turned out to be 100%; in test [2], 100%; in test [3], 90%.

On to `COc1c(Cl)ccc(-c2cc(N)c(Cl)c(C(=O)NOCc3ccc(C)cc3)n2)c1F` [Compound 14, 4-Amino-3-chloro-6-(4-chloro-2-fluoro-3-methoxyphenyl)-N-(4-methyl-benzyloxy)picolinamide], for which the plant injury at 70 g/ha in the test on corn (Zea mays) worked out at 15%. The pest or weed control at 70 g/ha in test [1], in test [2] and in test [3] was 100% throughout.

`CCCONC(=O)c1nc(-c2ccc(Cl)c(OC)c2F)cc(N)c1Cl` [Compound 7, 4-Amino-3-chloro-6-(4-chloro-2-fluoro-3-methoxyphenyl)-N-propoxypicolinamide]: in the test with corn (Zea mays), the plant injury at 35 g/ha turned out to be 25%. The pest or weed control at 35 g/ha in test [1], in test [2] and in test [3] was 100% throughout.

On to `COc1c(Cl)ccc(-c2cc(N)c(Cl)c(C(=O)NOCc3ccc(F)cc3)n2)c1F` [Compound 22, 4-Amino-3-chloro-6-(4-chloro-2-fluoro-3-methoxyphenyl)-N-(4-fluoro-benzyloxy)picolinamide], for which, in the test with corn (Zea mays), the plant injury at 35 g/ha came out at 10%. Further, the pest or weed control at 35 g/ha in test [1], in test [2] and in test [3] was 100% throughout.

For `COC[C@H]1O[C@H](ONC(=O)c2nc(-c3ccc(Cl)c(OC)c3F)cc(N)c2Cl)[C@H](OC)[C@@H](OC)[C@@H]1OC` [Compound 16, 4-Amino-3-chloro-6-(4-chloro-2-fluoro-3-methoxyphenyl)-N-((2R,3R,4S,5R,6R)-3,4,5-trimethoxy-6-(methoxymethyl)tetrahydro-2H-pyran-2-yloxy)picolinamide], in the test on corn (Zea mays), the plant injury at 70 g/ha stood at 10%. Moreover, the results for the pest or weed control at 70 g/ha in test [1], in test [2] and in test [3] were 100%, 100% and 95%, respectively.

Regarding `COCCONC(=O)c1nc(-c2ccc(Cl)c(OC)c2F)cc(N)c1Cl` [Compound 49, 4-Amino-3-chloro-6-(4-chloro-2-fluoro-3-methoxyphenyl)-N-(2-methoxy-ethoxy)picolinamide], the plant injury at 280 g/ha in the test on corn (Zea mays) was 0%. Moreover, the pest or weed control at 280 g/ha in test [1], in test [2] and in test [3] was 100% in each case.

For `COc1c(Cl)ccc(-c2cc(N)c(Cl)c(C(=O)N3CCCO3)n2)c1F` [Compound 40, (4-Amino-3-chloro-6-(4-chloro-2-fluoro-3-methoxyphenyl)pyridin-2-yl)(isoxazolidin-2-yl)methanone], in the test on corn (Zea mays), the plant injury at 140 g/ha was 20%. Further, the pest or weed control at 140 g/ha stood at 95% in test [1], 100% in test [2] and 100% in test [3].

For `COCCOCONC(=O)c1nc(-c2ccc(Cl)c(OC)c2F)cc(N)c1Cl` [Compound 51, 4-Amino-3-chloro-6-(4-chloro-2-fluoro-3-methoxyphenyl)-N-((2-methoxyethoxy)-methoxy)picolinamide], the plant injury at 35 g/ha in the test with corn (Zea mays) worked out at 35%. In addition, the pest or weed control at 35 g/ha in test [1], in test [2] and in test [3] was 100% throughout.

Regarding `COc1c(Cl)ccc(-c2cc(N)c(Cl)c(C(=O)NOC(C)(C)C)n2)c1F` [Compound 21, 4-Amino-N-tert-butoxy-3-chloro-6-(4-chloro-2-fluoro-3-methoxyphenyl)picolinamide], the plant injury at 140 g/ha in the test on corn (Zea mays) came to 0%. In addition, the values for the pest or weed control at 140 g/ha in test [1], in test [2] and in test [3] were 100%, 95% and 95%, respectively.

On to `CC/C=C/CONC(=O)c1nc(-c2ccc(Cl)c(OC)c2F)cc(N)c1Cl` [Compound 45, (E)-4-Amino-3-chloro-6-(4-chloro-2-fluoro-3-methoxyphenyl)-N-(2-pentenyl-oxy)picolinamide], for which the plant injury at 140 g/ha with corn (Zea mays) is 30%. The pest or weed control at 140 g/ha in test [1], in test [2] and in test [3] was 100% throughout.

Take `C=CCON(C(C)=O)C(=O)c1nc(-c2ccc(Cl)c(OC)c2F)nc(N)c1C=C` [Compound 9, N-Acetyl-N-(2-propenyloxy)-6-amino-2-(4-chloro-2-fluoro-3-methoxyphenyl)-5-vinylpyrimidine-4-carboxamide]: the plant injury at 140 g/ha in the test on corn (Zea mays) came out at 25%. In addition, the pest or weed control at 140 g/ha worked out at 95% in test [1], 100% in test [2] and 80% in test [3].

As to `C=CC(C)ONC(=O)c1nc(-c2ccc(Cl)c(OC)c2F)cc(N)c1Cl` (centres unmarked) [Compound 33, 4-Amino-N-(but-3-en-2-yloxy)-3-chloro-6-(4-chloro-2-fluoro-3-methoxy-phenyl)picolinamide], the plant injury at 70 g/ha with corn (Zea mays) stood at 10%. Besides, the pest or weed control at 70 g/ha in test [1], in test [2] and in test [3] was 100% in each case.

On to `COc1c(Cl)ccc(-c2cc(N)c(Cl)c(C(=O)NOC(C)C)n2)c1F` [Compound 8, 4-Amino-3-chloro-6-(4-chloro-2-fluoro-3-methoxyphenyl)-N-isopropoxypicolinamide], for which the plant injury at 70 g/ha with corn (Zea mays) was 0%. For the same compound, the pest or weed control at 70 g/ha in test [1], in test [2] and in test [3] was 100% in each case.
